What was measured:
Format in all cases: in vivo
Solanum nigrum (SOLNI) [1] = assay: Pre-emergence biological efficacy, glasshouse, 1000 g/ha, evaluated after 13 days (100=total damage to plant; 0=no damage to plant); conditions: Solanum nigrum, 312 h, rate 1,000 g/ha, read-out: Percentage damage caused to weed species, pre-emergence, SOLNI
Outline: (§1)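 Test species are sown into pots of standard soil. Plants then grow in the glasshouse under controlled conditions (24/16° C. day/night, 14 hours light, 65% humidity) and receive water twice a day.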

[2] = test system: Ipomoea hederaceae (IPOHE); assay: as above; conditions: Ipomoea, 312 h, rate 1,000 g/ha, read-out: Percentage damage caused to weed species, pre-emergence, IPOHE
Outline: as §1

Setaria faberi (SETFA) [3] = assay: as above; conditions: Setaria faberi, 312 h, rate 1,000 g/ha, read-out: Percentage damage caused to weed species, pre-emergence, SETFA
Outline: as §1

[4] = test system: Amaranthus retroflexus (AMARE); assay: as above; conditions: Amaranthus retroflexus, 312 h, rate 1,000 g/ha, read-out: Percentage damage caused to weed species, pre-emergence, AMARE
Outline: as §1

[5] = test system: Alopecurus myosuroides (ALOMY); assay: as above; conditions: Alopecurus myosuroides, 312 h, rate 1,000 g/ha, read-out: Percentage damage caused to weed species, pre-emergence, ALOMY
Outline: as §1

[6] = test system: Echinochloa crus-galli (ECHCG); assay: as above; conditions: Echinochloa crus-galli, 312 h, rate 1,000 g/ha, read-out: Percentage damage caused to weed species, pre-emergence, ECHCG
Outline: as §1

Solanum nigrum (SOLNI) [7] = assay: Post-emergence biological efficacy, glasshouse, 500 or 1000 g/ha, evaluated after 13 days (100=total damage to plant; 0=no damage to plant); conditions: Solanum nigrum, 312 h, rate 1,000 g/ha, read-out: Percentage damage caused to weed species, post-emergence, SOLNI
Outline: (§2)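 Sow seeds in standard potting soil. Treat after emergence. Keep treated plants in the glasshouse at 24° C. by day and 16° C. by night, with a 14-hour photoperiod, 65% humidity and two waterings daily.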

[8] = test system: Ipomoea hederaceae (IPOHE); assay: as above; conditions: Ipomoea, 312 h, rate 1,000 g/ha, read-out: Percentage damage caused to weed species, post-emergence, IPOHE
Outline: as §2

Setaria faberi (SETFA) [9] = assay: as above; conditions: Setaria faberi, 312 h, rate 1,000 g/ha, read-out: Percentage damage caused to weed species, post-emergence, SETFA
Outline: as §2

[10] = test system: Amaranthus retroflexus (AMARE); assay: as above; conditions: Amaranthus retroflexus, 312 h, rate 1,000 g/ha, read-out: Percentage damage caused to weed species, post-emergence, AMARE
Outline: as §2

[11] = test system: Alopecurus myosuroides (ALOMY); assay: as above; conditions: Alopecurus myosuroides, 312 h, rate 1,000 g/ha, read-out: Percentage damage caused to weed species, post-emergence, ALOMY
Outline: as §2

[12] = test system: Echinochloa crusgaffi (ECHCG); assay: as above; conditions: Echinochloa, 312 h, rate 1,000 g/ha, read-out: Percentage damage caused to weed species, post-emergence, ECHCG
Outline: as §2

Structure (SMILES) | pest or weed control at 1000 g/ha (Solanum nigrum (SOLNI) [1]) [%] | pest or weed control at 1000 g/ha [2] [%] | pest or weed control at 1000 g/ha (Setaria faberi (SETFA) [3]) [%] | pest or weed control at 1000 g/ha [4] [%] | pest or weed control at 1000 g/ha [5] [%] | pest or weed control at 1000 g/ha [6] [%] | pest or weed control at 1000 g/ha (Solanum nigrum (SOLNI) [7]) [%] | pest or weed control at 1000 g/ha [8] [%] | pest or weed control at 1000 g/ha (Setaria faberi (SETFA) [9]) [%] | pest or weed control at 1000 g/ha [10] [%] | pest or weed control at 1000 g/ha [11] [%] | pest or weed control at 1000 g/ha [12] [%]
COC(=O)c1nc(-c2ccc(Cl)c(OC)c2F)cc2c1ccn2Cc1ccco1 [Compound 32-62, 6-(4-Chloro-2-fluoro-3-methoxyphenyl)-1-(2-furanyl-methyl)-4-methoxycarbonyl-1H-pyrrolo[3,2-c]pyridine] | 80 | 20 | 20 | 80 | 30 | 30 | 80 | 70 | 40 | 80 | 10 | 50
COc1c(Cl)ccc(-c2nc(C(=O)O)c3c(C)c[nH]c3n2)c1F [Compound 1-63, 4-carboxy-2-(4-chloro-2-fluoro-3-methoxyphenyl)-5-methyl-7H-pyrrolo[2,3-d]pyrimidine] | 90 | 80 | 10 | 70 | 30 | 20 | 100 | 70 | 60 | 100 | 40 | 60
Cc1cc2c(C(=O)O)nc(C3CC3)nc2n1Cc1ccccc1[N+](=O)[O-] [Compound 8-5, 4-Carboxy-2-cyclopropyl-6-methyl-7-(2-nitrophenyl-methyl)-7H-pyrrolo[2,3-d]pyrimidine] | 0 | 0 | 0 | 0 | 0 | 0 | 0 | 0 | 0 | 0 | 0 | 0
COc1c(Cl)ccc(-c2nc(C(=O)OCC3CCCO3)c3c(C)c[nH]c3n2)c1F (stereo not drawn) [Compound 1-88, 2-(4-Chloro-2-fluoro-3-methoxyphenyl)-5-methyl-4-(tetrahydrofuran-2-yl-methoxycarbonyl)-7H-pyrrolo[2,3-d]pyrimidine] | 20 | 10 | 0 | 10 | 0 | 10 | 70 | 50 | 40 | 50 | 10 | 10
COc1c(Cl)ccc(-c2nc3c(c(C(=O)O)n2)N[C@@H]2CCCC[C@H]2N3)c1F [Compound 91-207, (5aR,9aR)-4-Carboxy-2-(4-chloro-2-fluoro-3-methoxyphenyl)-5,5a,6,7,8,9,9a,10-octahydro-benzo[g]pteridine] | 10 | 0 | 10 | 20 | 0 | 0 | 70 | 60 | 0 | 20 | 0 | 0

— patent US20120202690A1, “HERBICIDAL COMPOUNDS” (SYNGENTA LIMITED, priority 2009, published 2012)
